Measurements as given in US11396524B2, “Hydrate crystal of 3′,3′-cGAMP” (Yamasa Corporation, priority 2018, dated 2022).

Experiments:
Format in all cases: physicochemical
[1] = Crystal moisture content by the Karl-Fischer method; details: for Moisture content after storage at a humidity of 43% for 1 day: stored at humidity 43% for 1 day
Protocol: In Example 1, the crystals of 3′,3′-cGAMP sodium salt were prepared. Here, the crystal moisture content immediately after drying was measured by the Karl-Fischer method. As a result, the moisture content was 7.9%. […] In addition, the crystals were stored at a humidity of 43% for 1 day so as to stabilize their moisture content. The moisture content was likewise measured.
The crystals of 3′,3′-cGAMP free acid as prepared in Example 2 were stored at a humidity of 43% for 1 day so as to stabilize their moisture content. Then, the crystal moisture content was measured by the Karl-Fischer method.

[2] = Stability test, crystals stored at 60° C.
Protocol: Meanwhile, the crystals were stored at 60° C. and subjected to a stability test.

[3] = Hygroscopicity test: standing 3 days in desiccator at 30° C. and 93% humidity, moisture content by the Karl-Fischer method; details: for Moisture content after standing / Moisture content before standing: Karl-Fischer method; for Moisture content after standing: after standing 3 days at 30° C., humidity 93% (saturated potassium nitrate desiccator); for Moisture content before standing: before standing at 30° C.; for Moisture content before standing / Δ Moisture content: humidity 93%; for Δ Moisture content: after minus before standing 3 days at 30° C.
Protocol: A hydrate crystal of 3′,3′-cGAMP according to the invention may be either a crystal of alkali metal salt or a crystal of free acid. Either is less hygroscopic than existing powder. Thus, each is easy to handle in various purposes and is thus useful as a pharmaceutical raw material or the like. Note that the wording “less hygroscopic” herein refers to the case where after (A) allowed to stand for 1 day under conditions at a temperature of 30° C. and a humidity of 43% and then (B) allowed to stand for 3 days under conditions at a temperature of 30° C. and a humidity of 93%, a substance of interest has a moisture content of 25% or less at the end point (B) and the difference in the moisture content between the end point (A) and the end point (B) is within ±5%.
The crystals obtained in the above Examples 1 and 2 as well as the lyophilized product obtained in the Reference Example were allowed to stand for 3 days in a desiccator filled with a saturated potassium nitrate solution and kept at a temperature of 30° C. and a humidity of 93%. The moisture content was compared between before and after the standing by the Karl-Fischer method.

Substance	Moisture content after storage at a humidity of 43% for 1 day [1]	Stability under high temperature conditions (decomposition of 3′,3′-cGAMP) [2]	Moisture content after standing [3]	Moisture content before standing [3]	Δ Moisture content [3]	Moisture content after standing ([3]; sodium salt)	Moisture content before standing ([3]; sodium salt)	Δ Moisture content ([3]; sodium salt)	Moisture content immediately after drying ([1]; immediately after drying)
3′,3′-cGAMP free acid [Example 2]	24.7%	not apparently decomposed	23.09%	24.71%	−1.62%	–	–	–	–
3′,3′-cGAMP sodium salt [Reference Example, reference compound]	–	–	–	–	–	36.01%	12.94%	+23.07%	–
3′,3′-cGAMP sodium salt [Example 1]	18.1%	not apparently decomposed	–	18.10%	–	21.60%	–	+3.50%	7.9%
